Here are results for 5 compounds from patent publication US20030100567A1, “Tyrosine kinase inhibitors” (priority 2001, published 2003).

In general, clearance refers to the rate of elimination divided by the concentration. As a reminder, the half-life is how long it takes for the measured level to halve. The bioavailability is the share of a dose that reaches the circulation, judged against a reference dose that is usually intravenous.

Common to all, as to conditions: in vivo
One series is described as follows: Pharmacokinetics in dog.
A further series can be described thus: Pharmacokinetics in rat.
Series [1] can be described thus: Pharmacokinetics in rhesus monkey.

SMILES strings stand for the structures.

In “Pharmacokinetics in dog”, `N#Cc1cnc(Nc2cc(CN3CCN(C(N)=O)CC3)ccn2)s1` gave a clearance of 2.6 mL/min/kg and a half-life of 2.1 h.

In the series “Pharmacokinetics in rat”, `CN(C)C(=O)N1CCN(Cc2ccnc(Nc3ncc(C#N)s3)c2)CC1` showed a clearance of 15.5 mL/min/kg and a half-life of 1.6 h. Besides, in the series “Pharmacokinetics in dog”, the bioavailability turned out to be 49%, the clearance worked out at 3.6 mL/min/kg and the half-life was 3.4 h.

In “Pharmacokinetics in dog”, `CC(=O)N1CCN(Cc2ccnc(Nc3ncc(C#N)s3)c2C)CC1` had a clearance of 14 mL/min/kg and a half-life of 1.4 h.

Consider `CNC(=O)N1CCN(Cc2ccnc(Nc3ncc(C#N)s3)c2)CC1` [Compound 4-4, 4-[2-(5-cyano-thiazol-2-ylamino)-pyridin-4-ylmethyl]-piperazine-1-carboxylic acid methylamide], for which, in series [1], the bioavailability is 43%, the clearance came out at 13.4 mL/min/kg and the half-life was 1.7 h. Besides, in “Pharmacokinetics in rat”, the bioavailability was 49%, the clearance was determined as 10.7 mL/min/kg and the half-life is 1.9 h. In the series “Pharmacokinetics in dog”, this compound gave a bioavailability of 99%, a clearance of 0.5 mL/min/kg and a half-life of 17.4 h.

For the compound `CS(=O)(=O)C1CCN(Cc2ccnc(Nc3ncc(C#N)s3)c2)CC1` [Compound 5-6, 2-[(4-{[4-(methylsulfonyl)piperidin-1-yl]methyl}pyridin-2-yl)amino]-1,3-thiazole-5-carbonitrile], the bioavailability was 67% in series [1], 70% in the series “Pharmacokinetics in rat” and 95% in “Pharmacokinetics in dog”. The clearance turned out to be 3 mL/min/kg in series [1], 16.3 mL/min/kg in the series “Pharmacokinetics in rat” and 1.8 mL/min/kg in the series “Pharmacokinetics in dog”. For the same compound, the half-life is 5.5 h in series [1], 1.1 h in the series “Pharmacokinetics in rat” and 6.3 h in “Pharmacokinetics in dog”.
